Reference: patent US4376773A, “10-Substituted 5-cyanomethylene-10,11-dihydro-dibenzo-[a,d]-cycloheptenes, their preparation, and therapeutic agents containing these compounds” (BASF Aktiengesellschaft, priority 1980, dated 1983)
Like-named read-outs stand apart in the source and are kept apart here.

Tests used:
[1] = test system: death from physostigmine; assay: Anticholinergic action: protection against physostigmine lethality; format: in vivo, mouse (female NMRI); conditions: mice, oral, 30 min before physostigmine 0.825 mg/kg s.c.; dose protecting 50% against death
Method: Groups of 10 female NMRI mice are given physostigmine subcutaneously, at a lethal dose (0.825 mg/kg). The test substances are administered orally 30 minutes before the administration of physostigmine.
The ED 50% is determined as the dose of compound which protects 50% of the animals against death from physostigmine.

[2] = test system: tonic extensor reflex on the rabbit gastrocnemius; assay: Muscle-relaxing action: tonic extensor reflex; format: in vivo; conditions: for ED50: Oryctolagus cuniculus, rabbit, intravenous, dose reducing muscle activity to half, read-out: Muscle relaxation ED 50%; for Muscle relaxation R.A. (relative activity): clozapine = 1.0
Description: The measurement is based on quantifying the tonic extensor reflex on the rabbit gastrocnemius (Teschendorf et al., Arch. Pharmacol. exp. Path. 266 (1970), 462). The rabbit is fixed in a special apparatus which permits bending the paw at the talocalcanean joint in a defined and reproducible manner. As a result of this bending, a tonic extensor reflex is triggered in the […]. The electrical activity of the muscle during contraction is registered and the individual pulses are counted. The extension (duration 5 s) is repeated at intervals of one minute. After a constant number of pulses has been reached (constituting the control value), the test compound is administered intravenously. The number of pulses after administration is related to the previous value. For each dose investigated, 4-6 animals are used. The ED 50% is the dose which reduces the muscle activity to half, based on the initial value.

[3] = Acute toxicity; conditions: mouse, in vivo, ip; mice, intraperitoneal; read-out: Toxicity LD 50
Method: Groups of 5-10 female NMRI mice are given the compounds intraperitoneally. The LD 50 is determined as the dose after which 50% of the treated animals die.

[4] = test system: methamphetamine-antagonism (sniffing movements); assay: Antimethamphetamine action: methamphetamine-induced sniffing movements; format: in vivo, rat; conditions: for ED50: ip, 0.5 h, rat, intraperitoneal, 30 min before methamphetamine 2.5 mg/kg i.v., read-out: Antimethamphetamine action ED 50%; for Antimethamphetamine action R.A. (relative activity): clozapine = 1.00
Method: Methamphetamine (2.5 mg/kg administered intravenously) regularly causes the following symptoms in rats: motor restlessness, searching and sniffing movements, bristling fur and tremor (Janssen et al., Arzneim.-Forsch./DrugRes. 13 (1963), 205; Randrug et al., Psychopharmacologia 11 (1967), 300). The test substances are administered intraperitoneally, 30 minutes before the methamphetamine. The criterion of whether a compound has an effect is whether the sniffing movements remain absent over 5 minutes' observation after the injection of methamphetamine. That dose is determined as the mean inhibitory dose (ED 50%) by means of Probit analysis which prevents the symptom in half the number of animals. Number of animals examined per dose: 10.

[5] = test system: orientation hypermotility; assay: Sedative action: orientation hypermotility in mice; format: in vivo, mouse (female NMRI); conditions: for ED50: Mus musculus, 0.5 h, mice, oral, 30 min after administration, 50% decrease in orientation hypermotility vs placebo, read-out: Sedation ED 50%; for Sedation R.A. (relative activity): clozapine = 1.0
Method: 4-8 groups of 3 female NMRI mice are given the compound orally. The orientation hypermotility induced by a new environment is determined photoelectrically, 30 minutes after administration of the compound, for a period of 30 minutes. The ED50 is the dose which produces a decrease in orientation hypermotility by 50%, compared to control animals treated with placebo.

[6] = test system: apomorphine-antagonism (mandibular movements); assay: Antiapomorphine action: apomorphine-triggered mandibular movements; format: in vivo, rat (female Sprague-Dawley); conditions: for ED50: 1.5 h, read-out: Antiapomorphine action ED 50%; for Antiapomorphine action R.A. (relative activity): clozapine = 1.00
Method: The test substances are administered orally 90 minutes before the apomorphine.

[7] = rat, oral, 90 min before apomorphine 1.5 mg/kg s.c.

| Structure (SMILES) | ED50 protecting against physostigmine lethality [1] | ED50 [2] | Muscle relaxation R.A. (relative activity) [2] | LD50 [3] | ED50 [4] | Antimethamphetamine action R.A. (relative activity) [4] | ED50 [5] | Sedation R.A. (relative activity) [5] | muscle-relaxing action compared with comparative substances ([2]; in words, vs clozapine and perlapine) | ED50 [6, 7] | Antiapomorphine action R.A. (relative activity) [6] | ED50 ([6]; Rattus norvegicus, po) |
| --- | --- | --- | --- | --- | --- | --- | --- | --- | --- | --- | --- | --- |
| CN1CCN(C2Cc3ccccc3C(=CC#N)c3ccccc32)CC1 (mixture of isomers) [Example 1, cis,trans-5-Cyanomethylene-10-(4-methyl-piperazin-1-yl)-10,11-dihydro-dibenzo[a,d]-cycloheptene. 1/2 H2 O] | > 46.4 | 0.1 mg/kg | 0.46 | > 100 mg/kg | 5.4 mg/kg | 6.85 | 5.6 mg/kg | 0.85 |  |  |  |  |
| CN1CCN(C2Cc3cc(Cl)ccc3C(=CC#N)c3ccccc32)CC1 (mixture of isomers) [Example 4, cis,trans-2-Chloro-5-cyanomethylene-10-(4-methylpiperazin-1-yl)-10,11-dihydro-dibenzo[a,d]-cycloheptene] |  | 0.02 mg/kg | 2.30 |  | 4.6 mg/kg | 8.04 | 5.5 mg/kg | 0.86 | markedly surpasses those of the comparative substances |  |  |  |
| CCN1CCN(C2Cc3ccccc3C(=CC#N)c3ccccc32)CC1 (mixture of isomers) [Example 5, cis,trans-5-Cyanomethylene-10-(4-ethyl-piperazin-1-yl)-10,11-dihydro-dibenzo[a,d]-cycloheptene. 1/2 H2 O] | > 46.4 | 0.1 mg/kg | 0.46 | > 100 mg/kg | 13 mg/kg | 2.85 | 6.7 mg/kg | 0.71 |  |  |  |  |
| N#CC=C1c2ccccc2CC(N2CCN(CCO)CC2)c2ccccc21 (mixture of isomers) [Example 7, cis,trans-5-Cyanomethylene-10-(N-β-hydroxyethyl-piperazin-1-yl)-10,11-dihydro-dibenzo[a,d]-cycloheptene. 1/2 H2 O] | > 100 |  |  | > 100 mg/kg | 30 mg/kg | 1.23 | 10 mg/kg | 0.47 |  |  |  |  |
| C[N+]1([O-])CCN(C2Cc3ccccc3C(=CC#N)c3ccccc32)CC1 (mixture of isomers) [Example 8, cis, trans-5-Cyanomethylene-10-(4-methyl-4-oxy-piperazin-1-yl)-10,11-dihydro-dibenzo[a,d]-cycloheptene. 1/2 H2 O] | > 100 |  |  | > 100 mg/kg | 39 mg/kg | 0.95 | 15.2 mg/kg | 0.31 |  | 7 mg/kg | 1.14 |  |
| CN1CCN(C2=Nc3cc(Cl)ccc3Nc3ccccc32)CC1 [Clozapine, clozapine, reference compound] |  | 0.046 mg/kg | 1.0 |  | 37 mg/kg | 1.00 |  | 1.0 |  | 8 mg/kg | 1.00 |  |
| CN1CCN(C2=Nc3ccccc3Cc3ccccc32)CC1 [Perlapine, perlapine, reference compound] |  | 0.1 mg/kg | 0.46 |  | 31 mg/kg | 1.19 | 2.01 mg/kg | 2.36 |  |  | 0.37 | 21.5 mg/kg |
